Our source for the T/C values is PubChem BioAssay AID248 (DTP/NCI, 2004).

In the test the test system is L1210 leukemia ip in BDF1 mice, survival T/C. Put plainly: NCI In Vivo Anticancer Drug Screen. Data for tumor model L1210 Leukemia (intraperitoneal) in B6D2F1 (BDF1) mice. The note with it: endpoint: mean survival time, higher = longer survival. The essentials: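 Survival endpoint. Drug-treated group vs vehicle group, expressed as T divided by C. Tumor passaged by transplantation.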

Where [1] appears, read: dose: 100.0 mg/kg/injection, schedule: Q04DX003 (ip), vehicle: saline with Tween-80.
[2] abbreviates: dose: 200.0 mg/kg/injection, schedule: Q04DX003 (ip), vehicle: saline with Tween-80.
Where [3] appears, read: dose: 400.0 mg/kg/injection, schedule: Q04DX003 (ip), vehicle: saline with Tween-80.
[4] abbreviates: dose: 100.0 mg/kg/injection, schedule: Q04DX003 (ip), vehicle: Klucel (hydroxypropylcellulose) (HPC).
The mark [5] stands for this setting: dose: 200.0 mg/kg/injection, schedule: Q04DX003 (ip), vehicle: Klucel (hydroxypropylcellulose) (HPC).
The mark [6] stands for this setting: dose: 400.0 mg/kg/injection, schedule: Q04DX003 (ip), vehicle: Klucel (hydroxypropylcellulose) (HPC).
Where [7] appears, read: dose: 100.0 mg/kg/injection, schedule: Q04DX003 (ip), vehicle: saline.
[8] abbreviates: dose: 200.0 mg/kg/injection, schedule: Q04DX003 (ip), vehicle: saline.
Where [9] appears, read: dose: 400.0 mg/kg/injection, schedule: Q04DX003 (ip), vehicle: saline.
[10] abbreviates: dose: 100.0 mg/kg/injection, schedule: Q01DX009 (ip), vehicle: Klucel (hydroxypropylcellulose) (HPC).
The mark [11] stands for this setting: dose: 200.0 mg/kg/injection, schedule: Q01DX009 (ip), vehicle: Klucel (hydroxypropylcellulose) (HPC).
The mark [12] stands for this setting: dose: 100.0 mg/kg/injection, schedule: Q04DX002 (ip), vehicle: saline.
The mark [13] stands for this setting: dose: 200.0 mg/kg/injection, schedule: Q04DX002 (ip), vehicle: saline.
Where [14] appears, read: dose: 100.0 mg/kg/injection, schedule: Q01DX009 (ip), vehicle: saline with Tween-80.
The mark [15] stands for this setting: dose: 200.0 mg/kg/injection, schedule: Q01DX009 (ip), vehicle: saline with Tween-80.
The mark [16] stands for this setting: dose: 400.0 mg/kg/injection, schedule: Q01DX009 (ip), vehicle: saline with Tween-80.

“And” between values parts separate entries of the source, which are not always exact repeats. Identical values can stand only once. Inconclusive results and toxic doses are left out. Square brackets hold non-standard residues; d marks the D form. Peptide text beside a SMILES is read from it. * marks the point of attachment. ξ: configuration not given here. Cbz = O=C(OCc1ccccc1)*; ξNva = CCCC(N)C(=O)O

In the case of `O=C(O)c1cc(CBr)cc(CBr)c1`, the T/C is, setting by setting: (dose: 3.13 mg/kg/injection, schedule: Q01DX009 (ip), vehicle: saline with Tween-80) 97 % of control; (dose: 6.25 mg/kg/injection, schedule: Q01DX001 (ip), vehicle: saline with Tween-80) 102 % of control; (dose: 6.25 mg/kg/injection, schedule: Q01DX009 (ip), vehicle: saline with Tween-80) 101 % of control; (dose: 12.5 mg/kg/injection, schedule: Q01DX001 (ip), vehicle: saline with Tween-80) 113 % of control.

On to `CN(CCO)/N=N/c1nc[nH]c1C(N)=O`, for which the T/C (dose: 100.0 mg/kg/injection, schedule: Q01DX001 (ip), vehicle: carboxymethylcellulose (CMC)) is 107 % of control; the T/C (dose: 200.0 mg/kg/injection, schedule: Q01DX001 (ip), vehicle: carboxymethylcellulose (CMC)) was 113 % of control; the T/C (dose: 400.0 mg/kg/injection, schedule: Q01DX001 (ip), vehicle: carboxymethylcellulose (CMC)) is 107 % of control; the T/C (dose: 400.0 mg/kg/injection, schedule: Q01DX009 (ip), vehicle: carboxymethylcellulose (CMC)) was 169 % of control; the T/C (dose: 800.0 mg/kg/injection, schedule: Q01DX009 (ip), vehicle: carboxymethylcellulose (CMC)) is 92 % of control.

Turning to `COC1OC(COCc2ccccc2)C(OCc2ccccc2)C(OC)C1O` (stereo unspecified), the T/C is, setting by setting: under setting [1], 96 % of control; under setting [2], 94 % of control; under setting [3], 104 % of control.

As to `O=C(CC(c1ccccc1)c1c(O)c2ccccc2oc1=O)c1ccccc1` (stereo unspecified), the T/C (dose: 0.5 mg/kg/injection, schedule: Q01DX009 (ip), vehicle: saline with Tween-80) was 95 % of control; the T/C (dose: 1.0 mg/kg/injection, schedule: Q01DX009 (ip), vehicle: saline with Tween-80) is 97 % of control; the T/C (dose: 2.0 mg/kg/injection, schedule: Q01DX009 (ip), vehicle: saline with Tween-80) is 100 % of control; the T/C (dose: 4.0 mg/kg/injection, schedule: Q01DX009 (ip), vehicle: saline with Tween-80) is 104 % of control; the T/C under setting [1] was 94 % of control; the T/C under setting [2] was 91 % of control. For the same compound, the T/C under setting [3] is 101 % of control.

Take `CCCC(NC(=O)CNC(=O)CNC(=O)OCc1ccccc1)C(=O)O` (stereo not drawn) (Cbz-Gly-Gly-[ξNva]-OH): the T/C under setting [4] is 101 % of control, the T/C under setting [5] was 106 % of control and the T/C under setting [6] is 106 % of control.

Take `N#CC1(OC2OC(CO)C(O)C(O)C2O)C=CC(O)C1O` (stereo unspecified): the T/C is, setting by setting: under setting [7], 98 % of control; under setting [8], 105 % of control; under setting [9], 96 % of control.

On to `CCN(CC)CC(=O)N1Cc2ccccc2Cc2ccccc2C1`, for which the T/C by setting is: (dose: 25.0 mg/kg/injection, schedule: Q04DX003 (ip), vehicle: Klucel (hydroxypropylcellulose) (HPC)) 92 % of control; (dose: 50.0 mg/kg/injection, schedule: Q04DX003 (ip), vehicle: Klucel (hydroxypropylcellulose) (HPC)) 100 % of control; under setting [4], 107 % of control.

Take `CCOC(=O)C1C(=O)C(C(C(=O)OC2CC(C)CCC2C(C)C)N(CCCl)CCCl)C(=O)C(C(=O)OCC)C1c1ccc(O)cc1` (stereo unspecified) (tested in a mixture with another compound): the T/C (dose: 50.0 mg/kg/injection, schedule: Q01DX009 (ip), vehicle: Klucel (hydroxypropylcellulose) (HPC)) is 93 % of control; the T/C under setting [10] is 109 % of control; the T/C under setting [11] is 111 % of control.

For the compound `COc1ccc(C=O)cc1OC`, the T/C is, setting by setting: under setting [10], 101 % of control; under setting [11], 102 % of control; (dose: 400.0 mg/kg/injection, schedule: Q01DX009 (ip), vehicle: Klucel (hydroxypropylcellulose) (HPC)) 96 % of control.

On to `CCN(CC)C(=O)C1CC=CCC1` (stereo unspecified), for which the T/C by setting is: under setting [12], 96 % of control; under setting [13], 107 % of control; (dose: 400.0 mg/kg/injection, schedule: Q04DX002 (ip), vehicle: saline) 93 % of control.

As to `CCCCCCCCSSCCCCCCCC`, the T/C was 97 % of control under setting [14]; 95 % of control under setting [7]; 95 % of control under setting [15]; 98 % of control under setting [8]; 91 % of control under setting [16]; 95 % of control under setting [9].

With `CC(/C=N/NC(N)=S)Cc1ccc(C(C)C)cc1` (stereo unspecified), the T/C is, setting by setting: (dose: 12.5 mg/kg/injection, schedule: Q04DX003 (ip), vehicle: saline with Tween-80) 98 % of control; (dose: 18.0 mg/kg/injection, schedule: Q01DX009 (ip), vehicle: alcohol) 95 % of control; (dose: 28.0 mg/kg/injection, schedule: Q01DX009 (ip), vehicle: alcohol) 95 % of control.

Consider `Cc1cc(=O)[nH]c(N(CCO)CCO)n1`, for which the T/C is, setting by setting: under setting [14], 92 % of control; under setting [1], 94 % of control; under setting [15], 100 % of control; under setting [2], 96 % of control; under setting [16], 100 % of control; under setting [3], 100 % of control.

On to `C=CCc1cn(C2CC(O)C(CO)O2)c(=O)[nH]c1=O` (stereo unspecified), for which the T/C is, setting by setting: (dose: 50.0 mg/kg/injection, schedule: Q01DX001 (ip), vehicle: saline) 101 % of control; (dose: 50.0 mg/kg/injection, schedule: Q04DX002 (ip), vehicle: saline) 91 % of control; (dose: 100.0 mg/kg/injection, schedule: Q01DX001 (ip), vehicle: saline) 100 % of control and 101 % of control and 106 % of control; (dose: 100.0 mg/kg/injection, schedule: Q01DX009 (ip), vehicle: saline) 98 % of control; under setting [12], 110 % of control; under setting [7], 106 % of control. For the same compound, the T/C (dose: 115.0 mg/kg/injection, schedule: Q01DX009 (ip), vehicle: saline) is 104 % of control; the T/C (dose: 175.0 mg/kg/injection, schedule: Q01DX009 (ip), vehicle: saline) was 102 % of control; the T/C (dose: 178.0 mg/kg/injection, schedule: Q01DX015 (ip), vehicle: saline) was 110 % of control; the T/C (dose: 200.0 mg/kg/injection, schedule: Q01DX009 (ip), vehicle: saline) is 109 % of control and 112 % of control; the T/C under setting [13] is 100 % of control; the T/C under setting [8] is 95 % of control. Besides, the T/C was 110 % of control (dose: 264.0 mg/kg/injection, schedule: Q01DX009 (ip), vehicle: saline); 107 % of control (dose: 267.0 mg/kg/injection, schedule: Q01DX015 (ip), vehicle: saline); 115 % of control (dose: 400.0 mg/kg/injection, schedule: Q01DX009 (ip), vehicle: saline); 119 % of control (dose: 400.0 mg/kg/injection, schedule: Q01DX015 (ip), vehicle: saline); 111 % of control under setting [9]; 121 % of control (dose: 600.0 mg/kg/injection, schedule: Q01DX015 (ip), vehicle: saline). For the same compound, the T/C is, setting by setting: (dose: 800.0 mg/kg/injection, schedule: Q01DX001 (ip), vehicle: saline) 105 % of control; (dose: 1600.0 mg/kg/injection, schedule: Q01DX001 (ip), vehicle: saline) 110 % of control.

`O=C1OC(=O)C2C3CCCCC3=C3CCCCC3C12` (stereo unspecified): the T/C is, setting by setting: (dose: 100.0 mg/kg/injection, schedule: Q04DX002 (ip), vehicle: Klucel (hydroxypropylcellulose) (HPC)) 96 % of control; under setting [4], 101 % of control; (dose: 200.0 mg/kg/injection, schedule: Q04DX002 (ip), vehicle: Klucel (hydroxypropylcellulose) (HPC)) 101 % of control; under setting [5], 105 % of control; (dose: 400.0 mg/kg/injection, schedule: Q04DX002 (ip), vehicle: Klucel (hydroxypropylcellulose) (HPC)) 93 % of control; under setting [6], 103 % of control.

As for `COC(=O)C(CCSC)NC(=O)C1CSC(C)(C)N1C=O` (stereo unspecified), the T/C reads like this: under setting [7], 97 % of control; under setting [8], 97 % of control; under setting [9], 101 % of control.
